Laboratory results: patent publication US8642656B2, “Calixarene-based peptide conformation mimetics, methods of use, and methods of making” (priority 2004, dated 2014)
Entries after “also recorded” stand apart in the source; their conditions may differ. Like-named read-outs stand apart in the source and are kept apart here.

What was measured:
[1] = system: MA148 human ovarian carcinoma; experiment: MA148 tumor growth model in athymic mice; type: in vivo; details: for tumor growth inhibition: MA148, end of 28 days; for MA148 tumor growth (in words): tumor-bearing mice
Experimental: Female athymic nude mice (nu/nu, 5-6 weeks old) were used. These mice were purchased from the National Cancer Institute and allowed to acclimatize to local conditions for at least one week. Animals were given water and standard chow ad libitum, and were kept on a 12-hour light/dark cycle. All experiments were approved by the University of Minnesota Research Animal Resources ethical committee. Mice were randomized and split into three groups: 1) human serum albumin (10 mg/kg/day), 2) βpep-25 (10 mg/kg/day) and 3) peptide mimetic agent (5 mg or 10 mg/kg/day). Test compounds were diluted in DMSO and administered using osmotic mini-pumps (Durect, Cupertino, Calif.). Exponentially growing MA148 human ovarian carcinoma cells, kindly provided by Prof. Ramakrishnan (R. P. Dings et al., Cancer Res., 63, 382-385 (2003)) or B16 mouse melanoma cells were cultured in RPM1 1640 medium (Life Technologies, Grand Island, N.Y.). This medium was supplemented with 10% fetal bovine serum and 1% penicillin/streptomycin (Cellgro, Mediatech, Washington, D.C.) at 37° C and 5% CO2. One hundred microliters (100 μL) of this tumor cell suspension (2×10^7 cells/ml) was then injected subcutaneously into the right flank of each mouse. Pumps were implanted into the left flank of mice for subcutaneous administration of compound over a 28-day treatment span.
Two variants of this model were used: prevention and intervention. For the prevention variant, treatment was initiated at the time of inoculation with MA148 cells. For the intervention variant, tumors were allowed to grow to an average size of 50 mm^3 (usually day 7 post inoculation) before treatment was initiated. With either variant, animals were randomized prior to the initiation of treatment. Treatment was administered via osmotic mini-pumps (Durect, Cupertino, Calif.), which were implanted subcutaneously in the left flank of mice. Concentrated solutions of βpep-25 or DBF analogs were formulated such that the 28-day treatment period would be covered by implantation of a single pump. In each study, control groups of animals were administered either PBS or PBS containing human serum albumin.
Female athymic nude mice (nu/nu, 5-6 weeks old) or C57BL/6 male mice were purchased from the National Cancer Institute and allowed to acclimatize to local conditions for at least one week. Animals were provided water and standard chow ad libitum, and were kept on a 12 hour light/dark cycle. All experiments followed protocols approved by the University of Minnesota Research Animal Resources Ethical Committee. Exponentially growing MA148 human ovarian carcinoma cells, kindly provided by Prof. Ramakrishnan (Dings et al., Cancer Res 63, 382-385 (2003)), and B16F10 murine melanoma cells, kindly provided by Prof. Fidler, were cultured in RPM1 1640 medium (Life Technologies, Grand Island, N.Y.) (van der Schaft, et al., Faseb J 16, 1991-1993 (2002)). This medium was supplemented with 10% fetal bovine serum and 1% penicillin/streptomycin (Cellgro, Mediatech, Washington, D.C.) at 37° C. and 5% CO2. 100 μL of this tumor cell suspension (2×10^7 MA148 cells/ml and 2×10^6 B16F10 cells/ml) was then injected subcutaneously into the right hind flank of each mouse (athymic or C57BL/6, respectively).
Tumors were allowed to grow to an average size of at least 50 mm^3 before treatment was initiated, and animals were randomized prior to the initiation of treatment. Treatment was administered in one of two ways: s.c. from osmotic mini-pumps, and i.p. injection. Osmotic mini-pumps (Durect, Cupertino, Calif.) were implanted subcutaneously in the left flank of mice, and concentrated solutions of calixarene analogs or βpep-25 were formulated in PBS containing 30% (v/v) DMSO such that the 14-day or 28-day treatment period would be covered by implantation of a single pump. In each study, control groups of animals were administered either PBS (30% DMSO v/v) or PBS containing human serum albumin to control for protein content. […]

LPS from S. typhimurium = experiment: LPS neutralization assay (Limulus amoebocyte lysate, QCL-1000); type: biochemical, Salmonella typhimurium; details: read-out: IC50 values (μM) for LPS binding, Salmonella
In short: (§1)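 Compounds were tested for inhibition of LPS-triggered activation of the Limulus amoebocyte lysate proenzyme, which cleaves a chromogenic substrate to release p-nitroaniline read at 405-410 nm. Each LPS was used at 0.04 units. IC50 came from sigmoidal dose-response fits.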

LPS from P. aeruginosa = experiment: as above; type: biochemical, Pseudomonas aeruginosa; details: read-out: IC50 values (μM) for LPS binding, P.a.
In short: as §1

[2] = 10 mg/kg/day s.c. osmotic mini-pump

**Q.** How did the tumor growth inhibition ([1]; 2.7 mg/kg/day s.c. osmotic mini-pump) turn out when “5,11,17,23-Tetra-tert-butyl-25,27-bis(2-guanidinoethoxy)-26,28-dihydroxy calix[4]arene trifluoroacetic acid salt [Compound 27]” was run?
**A.** Its tumor growth inhibition is “about 65%”.

**Q.** And the tumor growth inhibition [1, 2]?
**A.** Its tumor growth inhibition is “about 65%”.

**Q.** And the “MA148 tumor growth (in words)” value ([1]; trifluoroacetic acid salt)?
**A.** Its value is “inhibits MA148 tumor growth; also recorded: significantly inhibited”.

**Q.** What about the IC50 (LPS from S. typhimurium; Table 3, errors estimated ±30%) of the same compound?
**A.** The IC50 was 4.4 µM.

**Q.** What about the IC50 (LPS from P. aeruginosa; Table 3, errors estimated ±30%) of the same compound?
**A.** The IC50 was greater than 5 µM.

**Q.** With `CN(C)CCNC(=O)COc1c2cccc1Cc1cccc(c1OCC(=O)NCCN(C)C)Cc1cccc(c1OCC(=O)NCCN(C)C)Cc1cccc(c1OCC(=O)NCCN(C)C)C2` [Compound 40] as the compound, how does the tumor growth inhibition ([1]; 2.4 mg/kg/day s.c. osmotic mini-pump) read?
**A.** Its tumor growth inhibition is “about 65%”.

**Q.** What about the tumor growth inhibition [1, 2] of the same compound?
**A.** The tumor growth inhibition was 81%.

**Q.** And the “MA148 tumor growth (in words)” value [1]?
**A.** The value was “inhibition of MA148 tumor growth”.

**Q.** What about the “MA148 tumor growth (in words)” value ([1]; listed as KM0118 (40)) of the same compound?
**A.** The value was “significantly inhibited”.

**Q.** What about the IC50 (LPS from S. typhimurium; Table 2) of the same compound?
**A.** Its IC50 is greater than 5 µM.

**Q.** And the IC50 (LPS from S. typhimurium; Table 3, errors estimated ±30%)?
**A.** Its IC50 is greater than 5 µM.

**Q.** What about the IC50 (LPS from P. aeruginosa; Table 2) of the same compound?
**A.** Its IC50 is greater than 5 µM.

**Q.** What about the IC50 (LPS from P. aeruginosa; Table 3, errors estimated ±30%) of the same compound?
**A.** Its IC50 is greater than 5 µM.
